Experimental findings from US9963462B2 (priority 2015, dated 2018) are described below.

Assay [1] deals with SNAP-hSPR (sepiapterin reductase, SPR) (Homo sapiens, UniProt P35270). The experiment in a line: biochemical. The following applies: terbium labelled SNAP-hSPR / SSZ labelled SNAP-EGFP; read-out: hTR-FRET IC50. Format: binding.
Assay [2] concerns BH4 levels in SK-N-BE (2) cells. In words: SKN-N-BE (2) cellular assay, BH4 levels by LC-MS. The assay is classed as cell-based. The following applies: Homo sapiens, SKNBE2, read-out: SK-N-BE(2) IC50, SK-N-BE (2) cells, BH4 levels by LC-MS.

Sequence of SNAP-hSPR (sepiapterin reductase, SPR) (P35270 whole entry): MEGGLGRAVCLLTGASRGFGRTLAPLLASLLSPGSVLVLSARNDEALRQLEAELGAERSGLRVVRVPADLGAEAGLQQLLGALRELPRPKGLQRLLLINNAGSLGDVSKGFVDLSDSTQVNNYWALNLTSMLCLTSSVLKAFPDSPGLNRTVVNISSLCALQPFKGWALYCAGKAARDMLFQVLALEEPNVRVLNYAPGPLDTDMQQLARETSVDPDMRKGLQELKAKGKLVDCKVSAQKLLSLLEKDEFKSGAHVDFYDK

As for `Cc1cc(=O)[nH]c(-n2ncc(C(=O)N3CCN(c4ccccn4)CC3)c2C)n1` [Q-0299], the IC50 – broadly, the concentration at which inhibition is half-maximal – came to 5 nM in assay [1] and 1200 nM in assay [2].

Regarding `Cc1nc(-n2ncc(C(=O)N3CCc4ccccc4C3)c2C)[nH]c(=O)c1C` [Q-0381], the IC50 in assay [1] was determined as 10 nM; in assay [2], 2100 nM.

Take `O=C(c1ccc(-c2nc3c(c(=O)[nH]2)CCC3)nc1)N1CCC(C(F)(F)F)CC1` [Q-0472, 2-{5-[4-(trifluoromethyl)piperidine-1-carbonyl]pyridin-2-yl}-3H,4H,5H,6H,7H-cyclopenta[d]pyrimidin-4-one]: the concentration for half-maximal inhibition (IC50) in assay [1] came out at 200 nM; in assay [2], 17000 nM.

Consider `Cc1c(C(=O)N2CCN(c3ccccn3)CC2)cnn1-c1nn2cccc2c(=O)[nH]1` [Q-0843], for which the half-maximal inhibitory concentration (IC50) in assay [1] stood at 1 nM; in assay [2], 200 nM.

As for `Cc1cc(=O)[nH]c(-n2cc(C(=O)N3CCC(C(F)(F)F)CC3)c(C)n2)n1` [Q-0432, 6-methyl-2-{3-methyl-4-[4-(trifluoromethyl)piperidine-1-carbonyl]-1H-pyrazol-1-yl}-3,4-dihydropyrimidin-4-one], the IC50 was found to be 40 nM in assay [1] and 6500 nM in assay [2].

As to `O=C(c1cnn(-c2nc3sccc3c(=O)[nH]2)c1)N1CCC(c2c[nH]c3ccccc23)CC1` [Q-0754], the figures for the IC50 in assay [1] and in assay [2] were 9 nM and 100 nM, respectively.

Regarding `Cc1c(C(=O)N2CC(CN)C2)cnn1-c1nc2c(c(=O)[nH]1)CCC2` [Q-0589], the IC50 in assay [1] was determined as 60 nM; in assay [2] it was 1700 nM.

With `COC1CN(C(=O)c2cnn(-c3nc4c(c(=O)[nH]3)CCC4)c2C)C1` [Q-0470], the IC50 in assay [1] was 5 nM; in assay [2] it was 1000 nM.

As to `Cc1cc(=O)[nH]c(-n2ncc(C(=O)N3CCc4ccccc43)c2C)n1` [Q-0001], the IC50 worked out at 20 nM in assay [1] and 2700 nM in assay [2].

`Cc1c(C(=O)N2CCC(C(F)(F)F)CC2)cnn1-c1nn2cc(F)cc2c(=O)[nH]1` [Q-0543]: the half-inhibitory concentration (IC50) came out at 3 nM in assay [1] and 400 nM in assay [2].

In the case of `Cc1c(C(=O)N2CCC(S(=O)(=O)c3ccccc3)CC2)cnn1-c1nc2c(c(=O)[nH]1)CCC2` [Q-0504], the IC50 in assay [1] is 4 nM; in assay [2], 58 nM.

For the compound `Cc1c(C(=O)N2CC3CN(c4ccccc4)CC3C2)cnn1-c1nn2cccc2c(=O)[nH]1` (stereo not drawn) [Q-0846], the half-inhibitory concentration (IC50) was found to be 2 nM in assay [1] and 200 nM in assay [2].

As to `CCOC(=O)c1cn(-c2nn3cccc3c(=O)[nH]2)nn1` [Q-0839], the IC50 was found to be 8 nM in assay [1] and 1500 nM in assay [2].

As for `O=C(c1cnn(-c2nc3c(c(=O)[nH]2)CCC3)c1)N1CCC(c2nc3cc(F)ccc3s2)CC1` [Q-0707], the IC50 in assay [1] was 5 nM; in assay [2], 300 nM.

Take `Cc1cc(=O)[nH]c(-n2ncc(C(=O)NC3CCCC3)c2C(F)(F)F)n1` [Q-0334]: the IC50 in assay [1] turned out to be 80 nM; in assay [2], 49000 nM.

Turning to `Cc1c(C(=O)N2CCC(C3CC3)CC2)cnn1-c1nn2cccc2c(=O)[nH]1` [Q-0727], the IC50 in assay [1] stood at 1 nM; in assay [2], 81 nM.

For `CCOC(=O)c1nnn(-c2nn3cccc3c(=O)[nH]2)c1C` [Q-0780], the IC50 in assay [1] came to 1 nM; in assay [2] it was 200 nM.

As for `Cc1c(C(=O)N2C3CCC2CN(C(=O)OC(C)(C)C)C3)cnn1-c1nc2c(c(=O)[nH]1)CCC2` [Q-0745], the 50% inhibitory concentration (IC50) in assay [1] turned out to be 4 nM; in assay [2] it was 200 nM.

For `Cc1c(C(=O)N2C[C@@H]3CCN(C(=O)OC(C)(C)C)C[C@@H]32)cnn1-c1nn2cccc2c(=O)[nH]1` [Q-0790], the IC50 in assay [1] was determined as 7 nM; in assay [2], 1400 nM.

For the compound `Cc1c(C(=O)N2CC[C@H](C)C[C@@H]2C(F)(F)F)cnn1-c1nc2c(c(=O)[nH]1)CCC2` (racemic) [Q-0480], the IC50 in assay [1] was 9 nM; in assay [2] it was 300 nM.

Take `CC(C)c1c(C(=O)N2CCC(C(F)(F)F)CC2)cnn1-c1nc2c(c(=O)[nH]1)CCC2` [Q-0445]: the IC50 was determined as 10 nM in assay [1] and 900 nM in assay [2].
